Source: ChEMBL document CHEMBL1201862, “PubChem BioAssay data set” (2004)
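Step 1: Grow cells in 96-well plates. Step 2: Expose to compound for 48 hours at 5 concentrations. Step 3: Interpolate endpoints linearly; if unreached, use highest concentration. GI50 = concentration required for 50% inhibition of growth.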 Activity calls are given as the source filed them. Rule as the data show it: active = GI50 up to about 1.1 µM and inactive = higher. Non-standard residues stand in square brackets, D forms with d. Residues, ends and D or L forms follow the SMILES beside them. ξ: configuration not given here. *: point of attachment. NMeF = CN[C@@H](Cc1ccccc1)C(=O)O; NMeV = CN[C@H](C(=O)O)C(C)C; ξNMeV = CNC(C(=O)O)C(C)C; Boc = CC(C)(C)OC(=O)*; OBn = c1ccc(CO*)cc1

Legend:
Experiment in all cases: NCI tumour cell line growth inhibition, 48 h
786-0 = system: 786-0
CAKI-1 = system: CAKI-1
HCC 2998 = system: HCC 2998
HCT-15 = system: HCT-15
HOP-62 = system: HOP-62
HT-29 = system: HT-29
MOLT-4 = system: MOLT-4
Malme-3M = system: Malme-3M
NCI-H226 = system: NCI-H226
NCI-H23 = system: NCI-H23
OVCAR-3 = system: OVCAR-3
SK-MEL-28 = system: SK-MEL-28
SK-MEL-5 = system: SK-MEL-5
SK-OV-3 = system: SK-OV-3
SNB-75 = system: SNB-75
T47D = system: T47D
U-251 = system: U-251
UACC-257 = system: UACC-257
SF-539 = system: SF-539
SR = system: SR

| Structure (SMILES) | GI50 (786-0) | GI50 (CAKI-1) | GI50 (HCC 2998) | GI50 (HCT-15) [µM] | GI50 (HOP-62) | GI50 (HT-29) | GI50 (MOLT-4) | GI50 (Malme-3M) | GI50 (NCI-H226) | GI50 (NCI-H23) | GI50 (OVCAR-3) | GI50 (SK-MEL-28) | GI50 (SK-MEL-5) | GI50 (SK-OV-3) | GI50 (SNB-75) | GI50 (T47D) | GI50 (U-251) | GI50 (UACC-257) | GI50 (SF-539) | GI50 (SR) |
| --- | --- | --- | --- | --- | --- | --- | --- | --- | --- | --- | --- | --- | --- | --- | --- | --- | --- | --- | --- | --- |
| CCCCn1cnc2c(c(CC#N)nn2-c2ccccc2)c1=N | 57.1 µM (inactive) | > 100 µM (inactive) | 37.1 µM (inactive) | 36.8 | > 100 µM (inactive) | 33.4 µM (inactive) | 33.1 µM (inactive) | 63.5 µM (inactive) | 79.1 µM (inactive) | 51.9 µM (inactive) | 63.7 µM (inactive) | 44.1 µM (inactive) | 20.9 µM (inactive) | > 100 µM (inactive) | 45.6 µM (inactive) | 35.7 µM (inactive) | 37.9 µM (inactive) | 35.4 µM (inactive) | – | – |
| Cc1cc2oc(=N)c(C#N)c(C)c2cc1C | 96.4 µM (inactive) | 57.8 µM (inactive) | 52.5 µM (inactive) | 42.3 | 52 µM (inactive) | 63 µM (inactive) | 2.5 µM (inactive) | 43 µM (inactive) | 87.7 µM (inactive) | 31.3 µM (inactive) | 70.1 µM (inactive) | > 100 µM (inactive) | 30.7 µM (inactive) | 35.2 µM (inactive) | 19.1 µM (inactive) | 40.6 µM (inactive) | 65.6 µM (inactive) | > 100 µM (inactive) | 62.8 µM (inactive) | – |
| Cc1cc(C)c2cc(N)c(Cl)nc2n1 | > 100 µM (inactive) | > 100 µM (inactive) | – | 60.5 | – | 63.5 µM (inactive) | – | > 100 µM (inactive) | > 100 µM (inactive) | > 100 µM (inactive) | – | – | > 100 µM (inactive) | > 100 µM (inactive) | > 100 µM (inactive) | > 100 µM (inactive) | 99.5 µM (inactive) | > 100 µM (inactive) | > 100 µM (inactive) | – |
| CC(C)(C)[Si](C)(C)OCCCCC1CC2(S(=O)(=O)C3=CC=C=C=C3)ON1CC2S(=O)(=O)c1ccccc1 (centres undefined) | > 100 µM (inactive) | – | > 100 µM (inactive) | > 100 | > 100 µM (inactive) | > 100 µM (inactive) | > 100 µM (inactive) | – | > 100 µM (inactive) | > 100 µM (inactive) | > 100 µM (inactive) | > 100 µM (inactive) | > 100 µM (inactive) | > 100 µM (inactive) | > 100 µM (inactive) | > 100 µM (inactive) | > 100 µM (inactive) | 84.9 µM (inactive) | > 100 µM (inactive) | – |
| CC(C)CCCC(=O)CCCCCCC(=O)CCN(O)C(=O)C(N)CO (centres undefined) | 16 µM (inactive) | 16 µM (inactive) | – | 15.3 | 21.2 µM (inactive) | 18.7 µM (inactive) | 41.7 µM (inactive) | 13.7 µM (inactive) | 14 µM (inactive) | 15.1 µM (inactive) | 17.3 µM (inactive) | 19.1 µM (inactive) | 17.5 µM (inactive) | 19.1 µM (inactive) | 10.8 µM (inactive) | 13.8 µM (inactive) | 21.8 µM (inactive) | 17.3 µM (inactive) | 16 µM (inactive) | – |
| C=CCC12CC(=O)CCC1CC(=O)C2 (centres undefined) | > 100 µM (inactive) | > 100 µM (inactive) | > 100 µM (inactive) | > 100 | > 100 µM (inactive) | – | > 100 µM (inactive) | > 100 µM (inactive) | > 100 µM (inactive) | – | > 100 µM (inactive) | > 100 µM (inactive) | > 100 µM (inactive) | > 100 µM (inactive) | > 100 µM (inactive) | – | > 100 µM (inactive) | > 100 µM (inactive) | > 100 µM (inactive) | > 100 µM (inactive) |
| CCOC(=O)C1=C(C)N(NC(=O)OC)C2(N)N(NC(=O)OC)C(C)=C(C(=O)OCC)C12C#N (centres undefined) | > 100 µM (inactive) | > 100 µM (inactive) | > 100 µM (inactive) | > 100 | > 100 µM (inactive) | > 100 µM (inactive) | > 100 µM (inactive) | > 100 µM (inactive) | > 100 µM (inactive) | – | > 100 µM (inactive) | > 100 µM (inactive) | > 100 µM (inactive) | > 100 µM (inactive) | > 100 µM (inactive) | – | > 100 µM (inactive) | > 100 µM (inactive) | > 100 µM (inactive) | > 100 µM (inactive) |
| COc1ccc(C(=O)C(C(=O)CCC(=O)Nc2cccc(C(F)(F)F)c2)c2ccccc2)cc1 (centres undefined) | > 100 µM (inactive) | > 100 µM (inactive) | > 100 µM (inactive) | 78.5 | > 100 µM (inactive) | 65.6 µM (inactive) | 43.1 µM (inactive) | > 100 µM (inactive) | > 100 µM (inactive) | 44.8 µM (inactive) | 80 µM (inactive) | > 100 µM (inactive) | 33.2 µM (inactive) | > 100 µM (inactive) | > 100 µM (inactive) | – | > 100 µM (inactive) | 62.7 µM (inactive) | > 100 µM (inactive) | 62.7 µM (inactive) |
| Cn1c(=S)[nH]c2sc3c(c2c1=O)CCSC3 | 76.6 µM (inactive) | 44.8 µM (inactive) | 21.8 µM (inactive) | 31 | 25.9 µM (inactive) | 29.9 µM (inactive) | 33.8 µM (inactive) | 58.2 µM (inactive) | 22 µM (inactive) | 36.9 µM (inactive) | 24.8 µM (inactive) | – | 36 µM (inactive) | 90.8 µM (inactive) | > 100 µM (inactive) | 25.1 µM (inactive) | 40.5 µM (inactive) | 41.8 µM (inactive) | 54.1 µM (inactive) | – |
| CCOC(=O)c1c(SCc2cc(=O)[nH]c(=O)[nH]2)n(-c2ccccc2)c(=S)n(-c2ccccc2)c1=O | > 100 µM (inactive) | > 100 µM (inactive) | > 100 µM (inactive) | > 100 | > 100 µM (inactive) | > 100 µM (inactive) | > 100 µM (inactive) | > 100 µM (inactive) | – | – | > 100 µM (inactive) | > 100 µM (inactive) | > 100 µM (inactive) | > 10 µM (inactive) | > 100 µM (inactive) | > 100 µM (inactive) | > 100 µM (inactive) | > 100 µM (inactive) | > 100 µM (inactive) | – |
| O=C(c1ccccc1)c1ccc2cccc(OC3OC(CO)C(O)C(O)C3O)c2n1 (centres undefined) | > 100 µM (inactive) | > 100 µM (inactive) | > 100 µM (inactive) | > 100 | > 100 µM (inactive) | > 100 µM (inactive) | > 100 µM (inactive) | > 100 µM (inactive) | > 100 µM (inactive) | > 100 µM (inactive) | 45.2 µM (inactive) | > 100 µM (inactive) | > 100 µM (inactive) | – | 68.4 µM (inactive) | – | > 100 µM (inactive) | 54.7 µM (inactive) | > 100 µM (inactive) | > 100 µM (inactive) |
| COc1cccc(C2C3=C(COC3=O)Oc3cc4c(cc32)OCO4)c1 (centres undefined) | 0.0344 µM (active) | 0.0229 µM (active) | 0.0723 µM (active) | 0.0172 | 0.033 µM (active) | 0.0309 µM (active) | 0.0256 µM (active) | 0.0248 µM (active) | 0.0611 µM (active) | 0.0653 µM (active) | 0.0219 µM (active) | 0.0327 µM (active) | 0.0175 µM (active) | 0.0414 µM (active) | 0.0194 µM (active) | – | 0.0445 µM (active) | 0.0303 µM (active) | 0.0211 µM (active) | < 0.0135 µM (active) |
| O=C(/C=C/C1C(=O)NC(=O)NC1=O)CC(=O)C(=O)Nc1cc(Cl)c(Cl)cc1Cl | > 100 µM (inactive) | > 100 µM (inactive) | > 100 µM (inactive) | > 100 | > 100 µM (inactive) | > 100 µM (inactive) | > 100 µM (inactive) | > 100 µM (inactive) | > 100 µM (inactive) | > 100 µM (inactive) | > 100 µM (inactive) | > 100 µM (inactive) | > 100 µM (inactive) | > 100 µM (inactive) | > 100 µM (inactive) | – | > 100 µM (inactive) | > 100 µM (inactive) | > 100 µM (inactive) | > 100 µM (inactive) |
| CC1OC(OCC2OC(Oc3c(-c4ccc(O)cc4)oc4cc(O)cc(O)c4c3=O)C(OC3OC(C)C(O)C(O)C3O)C(O)C2O)C(O)C(O)C1O (centres undefined) | > 100 µM (inactive) | > 100 µM (inactive) | > 100 µM (inactive) | > 42.3 | > 100 µM (inactive) | > 100 µM (inactive) | > 100 µM (inactive) | > 100 µM (inactive) | > 100 µM (inactive) | > 100 µM (inactive) | > 100 µM (inactive) | > 100 µM (inactive) | > 100 µM (inactive) | > 100 µM (inactive) | > 100 µM (inactive) | – | > 100 µM (inactive) | > 100 µM (inactive) | > 100 µM (inactive) | > 100 µM (inactive) |
| CC(C)C(C(=O)N(C)[C@H](C(=O)N1CCC[C@H]1C(=O)N(C)[C@@H](Cc1ccccc1)C(=O)OCc1ccccc1)C(C)C)N(C)C(=O)[C@@H](NC(=O)OC(C)(C)C)C(C)C (some centres undefined) (Boc-V[ξNMeV][NMeV]P[NMeF]-OBn) | > 43.3 µM (inactive) | > 31.6 µM (inactive) | > 10 µM (inactive) | 8.65 | > 31.6 µM (inactive) | 14.2 µM (inactive) | 5.37 µM (inactive) | 34.8 µM (inactive) | > 63.5 µM (inactive) | 19.5 µM (inactive) | 15.3 µM (inactive) | > 31.6 µM (inactive) | 7.14 µM (inactive) | > 31.6 µM (inactive) | 12 µM (inactive) | – | > 31.6 µM (inactive) | 9.33 µM (inactive) | > 31.6 µM (inactive) | 7.36 µM (inactive) |
